Tested on: S. aureus RN4850
Assay type: cell-based

YSTCYFIM (SEQ ID NO: 123) (thiolactone cyclisation; listed as Staphylococcus aureus) [AIP-4, native S. aureus group IV autoinducing peptide, synthesized, reference compound]
α-hemolysin expression after adding synthetic AIP-4 to AP4-24H11: fully restored expression of α-hemolysin

Reference: patent publication US9394371B2, “Antibody-mediated disruption of quorum sensing in bacteria” (The Scripps Research Institute, priority 2007, dated 2016)
